Measurements reported in patent US10538555B2, “Macrocyclic inhibitors of the PD-1/PD-L1 and CD80(B7-1)/PD-L1 protein/protein interactions” (BRISTOL-MYERS SQUIBB COMPANY, priority 2014, dated 2020).
Where a SMILES comes first, the peptide text is derived from it. Bridges are numbered along the chain shown (N, C = ends). [ ]: non-standard residue; d: D form. ξ: configuration not given here. Trp(1-CH2COOH) = N[C@@H](Cc1cn(CC(=O)O)c2ccccc12)C(=O)O; Phe(3,4,5-F3) = N[C@@H](Cc1cc(F)c(F)c(F)c1)C(=O)O; NMePhe(4-Me) = CN[C@@H](Cc1ccc(C)cc1)C(=O)O; Phe(4-CH2NH2) = NCc1ccc(C[C@H](N)C(=O)O)cc1; NMePhe(4-F) = CN[C@@H](Cc1ccc(F)cc1)C(=O)O; d(cisHyp) = O=C(O)[C@H]1C[C@@H](O)CN1; Bta = N[C@@H](Cc1csc2ccccc12)C(=O)O; Hyp = O=C(O)[C@@H]1C[C@@H](O)CN1; NMeF = CN[C@@H](Cc1ccccc1)C(=O)O; 3Pal = N[C@@H](Cc1cccnc1)C(=O)O; dHyp = O=C(O)[C@H]1C[C@H](O)CN1; NMeNle = CCCC[C@H](NC)C(=O)O; Pip = O=C(O)[C@@H]1CCCCN1; dPip = O=C(O)[C@H]1CCCCN1; hSer = N[C@@H](CCO)C(=O)O; NMeA = CN[C@@H](C)C(=O)O; Orn = NCCC[C@H](N)C(=O)O; Dab = NCC[C@H](N)C(=O)O; Dap = NC[C@H](N)C(=O)O; ξC = NC(CS)C(=O)O; Sar = CNCC(=O)O

Each compound was assayed against T1, Human PD-L1/PD-1 (Homo sapiens, UniProt Q9NZQ7) (assay: HTRF Human PD-L1/PD-1 binding assay (PD-1-Ig/PD-L1-His)). Settings: PD-L1-His 10 nM, PD-1-Ig 20 nM; class symbol; read-out: HTRF Human PD-L1/PD-1 Binding Assay IC50 Range.
T1 construct: TVMV protease cleavage site (C); made in house; host or cells: HEK293T cells
T1 sequence (Q9NZQ7 with tags, fused parts or gaps): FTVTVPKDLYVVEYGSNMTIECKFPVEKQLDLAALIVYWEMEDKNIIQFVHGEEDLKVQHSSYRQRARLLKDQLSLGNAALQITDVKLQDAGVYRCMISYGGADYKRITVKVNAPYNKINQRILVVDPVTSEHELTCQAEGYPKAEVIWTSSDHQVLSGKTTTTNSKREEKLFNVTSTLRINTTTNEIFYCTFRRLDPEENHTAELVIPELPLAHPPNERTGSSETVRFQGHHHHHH
Outline: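 Truncated Fc-fused human PD-1 (aa 25-167) at 20 nM and His-tagged PD-L1 (aa 18-239) at 10 nM final are used, with peptides preincubated 15 min with PD-L1. Detection uses europium-cryptate anti-Ig and APC anti-His antibodies; 665/620 nm ratio.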

IC50 [nM]	SMILES
100 to 990	CCCC[C@H]1C(=O)N2C[C@@H](O)C[C@@H]2C(=O)N[C@@H](CC(=O)O)C(=O)N[C@@H](C(C)C)C(=O)N(C)[C@@H](Cc2ccc(C)cc2)C(=O)N[C@@H](CCCN)C(=O)N2CCC[C@@H]2C(=O)N[C@@H](Cc2c[nH]c3ccccc23)C(=O)N[C@@H](Cc2ccc(O)cc2)C(=O)N[C@@H](CC(C)C)C(=O)N[C@H](C(=O)NCC(N)=O)CSCC(=O)N[C@@H](Cc2cc(F)c(F)c(F)c2)C(=O)N(C)[C@@H](Cc2ccccc2)C(=O)N1C [Example 10119] ({CH2CO}-[Phe(3,4,5-F3)][NMeF][NMeNle][dHyp]DV[NMePhe(4-Me)][Orn][dP]WYLCG-NH2; thioether N-13)
10 to 99.9	CCCC[C@H]1C(=O)N2CCC[C@@H]2C(=O)N[C@@H](CO)C(=O)N[C@@H](C(C)C)C(=O)N(C)[C@@H](Cc2ccccc2)C(=O)N[C@@H](Cc2ccc(O)cc2)C(=O)N(C)CC(=O)N[C@@H](Cc2csc3ccccc23)C(=O)N[C@@H](Cc2ccc(O)cc2)C(=O)N[C@@H](CC(C)C)C(=O)N[C@H](C(=O)NCC(N)=O)CSCC(=O)N[C@@H](Cc2ccccc2)C(=O)N(C)[C@@H](Cc2ccccc2)C(=O)N1C [Example 10063] ({CH2CO}-F[NMeF][NMeNle][dP]SV[NMeF]Y[Sar][Bta]YLCG-NH2; thioether N-13)
10 to 99.9	CCCC[C@H]1C(=O)N(C)CC(=O)N[C@@H](CC(=O)O)C(=O)N[C@@H](C(C)C)C(=O)N(C)[C@@H](Cc2ccccc2)C(=O)N[C@@H](Cc2ccc(O)cc2)C(=O)N(C)CC(=O)N[C@@H](Cc2c[nH]c3ccccc23)C(=O)N[C@@H](Cc2ccc(O)cc2)C(=O)N[C@@H](CC(C)C)C(=O)N[C@H](C(=O)NCC(N)=O)CSCC(=O)N[C@@H](Cc2cccnc2)C(=O)N(C)[C@@H](Cc2ccccc2)C(=O)N1C [Example 3243] ({CH2CO}-[3Pal][NMeF][NMeNle][Sar]DV[NMeF]Y[Sar]WYLCG-NH2; thioether N-13)
10 to 99.9	CC(C)C[C@@H]1NC(=O)[C@H](Cc2ccc(O)cc2)NC(=O)[C@H](Cc2c[nH]c3ccccc23)NC(=O)[C@H]2CCCCN2C(=O)[C@H](CCC(=O)O)NC(=O)[C@H](Cc2ccccc2)N(C)C(=O)[C@H](C(C)C)NC(=O)[C@H](CC(=O)O)NC(=O)[C@H]2CCCN2C(=O)[C@H](Cc2ccccc2)N(C)C(=O)[C@H](Cc2ccc(F)cc2)N(C)C(=O)[C@H](Cc2cc(F)c(F)c(F)c2)NC(=O)CSC[C@@H](C(=O)NCC(N)=O)NC1=O [Example 10614] ({CH2CO}-[Phe(3,4,5-F3)][NMePhe(4-F)][NMeF][dP]DV[NMeF]E[dPip]WYLCG-NH2; thioether N-13)
10 to 99.9	CCCC[C@H]1C(=O)N(C)CC(=O)N[C@@H](CC(N)=O)C(=O)N[C@@H](C(C)C)C(=O)N(C)[C@@H](Cc2ccccc2)C(=O)N[C@@H](CC(=O)O)C(=O)N(C)CC(=O)N[C@@H](Cc2c[nH]c3ccccc23)C(=O)N[C@@H](Cc2ccc(CN)cc2)C(=O)N[C@@H](CC(C)C)C(=O)N[C@H](C(=O)NCC(N)=O)CSCC(=O)N[C@@H](Cc2ccccc2)C(=O)N(C)[C@@H](Cc2ccccc2)C(=O)N1C [Example 3212] ({CH2CO}-F[NMeF][NMeNle][Sar]NV[NMeF]D[Sar]W[Phe(4-CH2NH2)]LCG-NH2; thioether N-13)
1 to 9.9	CCCC[C@H]1C(=O)N2C[C@@H](O)C[C@@H]2C(=O)N[C@@H](CC(=O)O)C(=O)N[C@@H](C(C)C)C(=O)N(C)[C@@H](Cc2ccccc2)C(=O)N[C@@H](Cc2ccc(O)cc2)C(=O)N2C[C@@H](O)C[C@@H]2C(=O)N[C@@H](Cc2c[nH]c3ccccc23)C(=O)N[C@@H](Cc2ccc(O)cc2)C(=O)N[C@@H](CCCN)C(=O)N[C@H](C(=O)NCC(N)=O)CSCC(=O)N[C@@H](Cc2cc(F)c(F)c(F)c2)C(=O)N(C)[C@@H](Cc2ccccc2)C(=O)N1C [Example 9274] ({CH2CO}-[Phe(3,4,5-F3)][NMeF][NMeNle][dHyp]DV[NMeF]Y[dHyp]WY[Orn]CG-NH2; thioether N-13)

The next lines start with the compound.

SMILES	IC50 [nM]
CCCC[C@H]1C(=O)N(C)[C@@H](CCCC)C(=O)N[C@@H](CCC(=O)O)C(=O)NC(C(=O)NCC(N)=O)CSCC(=O)N[C@@H](Cc2ccc(O)cc2)C(=O)N(C)[C@@H](C)C(=O)N[C@@H](CC(N)=O)C(=O)N2CCC[C@H]2C(=O)N[C@@H](CC(N)=O)C(=O)N[C@@H](CC(C)C)C(=O)N2CCC[C@H]2C(=O)N[C@@H](Cc2c[nH]c3ccccc23)C(=O)N[C@@H](CC(=O)O)C(=O)N[C@@H](Cc2c[nH]c3ccccc23)C(=O)N1C (stereo partly drawn) [Example 9172] ({CH2CO}-Y[NMeA]NPNLPWDW[NMeNle][NMeNle]E[ξC]G-NH2; thioether N-14)	100 to 990
CCCC[C@H]1C(=O)N2C[C@@H](O)C[C@@H]2C(=O)N[C@@H](CC(=O)O)C(=O)N[C@@H](C(C)C)C(=O)N(C)[C@@H](Cc2ccc(F)cc2)C(=O)N[C@@H](CCCN)C(=O)N2CCC[C@@H]2C(=O)N[C@@H](Cc2c[nH]c3ccccc23)C(=O)N[C@@H](Cc2ccc(O)cc2)C(=O)N[C@@H](CCCN)C(=O)N[C@H](C(=O)NCC(N)=O)CSCC(=O)N[C@@H](Cc2cc(F)c(F)c(F)c2)C(=O)N(C)[C@@H](Cc2ccccc2)C(=O)N1C [Example 10120] ({CH2CO}-[Phe(3,4,5-F3)][NMeF][NMeNle][dHyp]DV[NMePhe(4-F)][Orn][dP]WY[Orn]CG-NH2; thioether N-13)	1 to 9.9
CCCC[C@H]1C(=O)N(C)[C@@H](CCCC)C(=O)N[C@@H](CC(C)C)C(=O)N[C@H](C(=O)NCC(N)=O)CSCC(=O)N[C@@H](Cc2ccc(O)cc2)C(=O)N(C)[C@@H](C)C(=O)N[C@@H](CC(=O)O)C(=O)N2CCC[C@H]2C(=O)N[C@@H](CN)C(=O)N[C@@H](CCC(N)=O)C(=O)N2C[C@H](O)C[C@H]2C(=O)N[C@@H](Cc2c[nH]c3ccccc23)C(=O)N[C@@H](CCN)C(=O)N[C@@H](Cc2cn(CC(=O)O)c3ccccc23)C(=O)N1C [Example 5153] ({CH2CO}-Y[NMeA]DP[Dap]Q[Hyp]W[Dab][Trp(1-CH2COOH)][NMeNle][NMeNle]LCG-NH2; thioether N-14)	1 to 9.9
CCCC[C@H]1C(=O)N(C)[C@@H](CCCC)C(=O)N[C@@H](C)C(=O)N[C@H](C(=O)NCC(N)=O)CSCC(=O)N[C@@H](Cc2ccc(O)cc2)C(=O)N(C)[C@@H](C)C(=O)N[C@@H](CC(N)=O)C(=O)N2CCC[C@H]2C(=O)N[C@@H](Cc2cnc[nH]2)C(=O)N[C@@H](CCC(N)=O)C(=O)N2CCNC[C@H]2C(=O)N[C@@H](Cc2c[nH]c3ccccc23)C(=O)N[C@@H](CO)C(=O)N[C@@H](Cc2c[nH]c3ccccc23)C(=O)N1C [Example 1278]	10 to 99.9
CCCC[C@H]1C(=O)N[C@@H](CC(N)=O)C(=O)N2CCC[C@H]2C(=O)N[C@@H](CO)C(=O)N[C@@H](CCO)C(=O)N2C[C@H](O)C[C@H]2C(=O)N[C@@H](Cc2c[nH]c3ccccc23)C(=O)N[C@@H](CCCN)C(=O)N[C@@H](Cc2c[nH]c3ccccc23)C(=O)N(C)[C@@H](C)C(=O)N(C)[C@@H](C)C(=O)N[C@@H](CCCNC(=N)N)C(=O)NC(C(=O)NCC(N)=O)CSCC(=O)N[C@@H](Cc2ccc(O)cc2)C(=O)N1C (stereo partly drawn) [Example 10201] ({CH2CO}-Y[NMeNle]NPS[hSer][Hyp]W[Orn]W[NMeA][NMeA]R[ξC]G-NH2; thioether N-14)	1000 to 10000
CCCC[C@H]1C(=O)N(C)[C@@H](CCCC)C(=O)N[C@@H](CC(C)C)C(=O)N[C@H](C(=O)NCC(N)=O)CSCC(=O)N[C@@H](Cc2ccc(O)cc2)C(=O)N2CCCC[C@H]2C(=O)N[C@@H](CC(N)=O)C(=O)N2CCC[C@H]2C(=O)N[C@@H](Cc2cnc[nH]2)C(=O)N[C@@H](CCC(N)=O)C(=O)N2C[C@H](O)C[C@H]2C(=O)N[C@@H](Cc2c[nH]c3ccccc23)C(=O)N[C@@H](CO)C(=O)N[C@@H](Cc2c[nH]c3ccccc23)C(=O)N1C [Example 1273] ({CH2CO}-Y[Pip]NPHQ[Hyp]WSW[NMeNle][NMeNle]LCG-NH2; thioether N-14)	1 to 9.9
CCCC[C@H]1C(=O)N(C)[C@@H](CCCC)C(=O)N[C@@H](CCC(=O)O)C(=O)N[C@H](C(=O)NCC(N)=O)CSCC(=O)N[C@@H](Cc2ccc(O)cc2)C(=O)N(C)[C@@H](C)C(=O)N[C@@H](CC(=O)O)C(=O)N2CCC[C@H]2C(=O)N[C@@H](CO)C(=O)N[C@@H](CC(C)C)C(=O)N2C[C@H](O)C[C@H]2C(=O)N[C@@H](Cc2c[nH]c3ccccc23)C(=O)N[C@@H](CCN)C(=O)N[C@@H](Cc2c[nH]c3ccccc23)C(=O)N1C [Example 5179] ({CH2CO}-Y[NMeA]DPSL[Hyp]W[Dab]W[NMeNle][NMeNle]ECG-NH2; thioether N-14)	1 to 9.9
CCCC[C@H]1C(=O)N(C)[C@@H](CCCC)C(=O)N[C@@H](CCCNC(=N)N)C(=O)N[C@H](C(=O)NCC(N)=O)CSCC(=O)N[C@@H](Cc2ccc(O)cc2)C(=O)N(C)[C@@H](C)C(=O)N[C@@H](CC(N)=O)C(=O)N2CCC[C@H]2C(=O)N[C@@H](CO)C(=O)N[C@@H](CCO)C(=O)N2C[C@H](O)C[C@H]2C(=O)N[C@@H](Cc2c[nH]c3ccccc23)C(=O)N[C@@H](CCO)C(=O)N[C@@H](Cc2cn(CC(=O)O)c3ccccc23)C(=O)N1C [Example 6213] ({CH2CO}-Y[NMeA]NPS[hSer][Hyp]W[hSer][Trp(1-CH2COOH)][NMeNle][NMeNle]RCG-NH2; thioether N-14)	1 to 9.9

Same assay, conditions: PD-L1-His 10 nM, PD-1-Ig 20 nM; read-out: HTRF Human PD-L1/PD-1 Binding Assay IC50

IC50 [nM]	SMILES
151	CCCC[C@H]1C(=O)N2C[C@H](O)C[C@@H]2C(=O)N[C@@H](CC(=O)O)C(=O)N[C@@H](C(C)C)C(=O)N(C)[C@@H](Cc2ccccc2)C(=O)N[C@@H](CCC(N)=O)C(=O)N2C[C@H](O)C[C@@H]2C(=O)N[C@@H](Cc2c[nH]c3ccccc23)C(=O)N[C@@H](Cc2ccc(O)cc2)C(=O)N[C@@H](CN)C(=O)N[C@H](C(=O)NCC(N)=O)CSCC(=O)N[C@@H](Cc2cc(F)c(F)c(F)c2)C(=O)N(C)[C@@H](Cc2ccccc2)C(=O)N1C [Example 9356] ({CH2CO}-[Phe(3,4,5-F3)][NMeF][NMeNle][d(cisHyp)]DV[NMeF]Q[d(cisHyp)]WY[Dap]CG-NH2; thioether N-13)
